In PMC9966414, “Pharmacological Profiling of KATP Channel Modulators: An Outlook for New Treatment Opportunities for Migraine” (Pharmaceuticals, 2023):

Assays:
Kir6.2/SUR1 = biological target: T1, Kir6.2/SUR1 (Homo sapiens, UniProt Q09428+Q14654); assay: thallium-flux fluorescence assay (FLIPR, BTC/AM); assay type: cell-based
T1 construct: gene KCNJ11; full-length human subunits co-expressed stably in HEK293 cells; GenScript vectors; four Kir6.2 plus four SUR1
Source text: thallium-flux fluorescence assay (FLIPR, BTC/AM) on Kir6.2/SUR1

Kir6.2/SUR2A = biological target: T2, Kir6.2/SUR2A (Homo sapiens, UniProt O60706+Q14654); assay: thallium-flux fluorescence assay (FLIPR, BTC/AM); assay type: cell-based
T2 construct: gene KCNJ11; full-length human subunits co-expressed stably in HEK293 cells; GenScript vectors; four Kir6.2 plus four SUR2A
Source text: (§1) thallium-flux fluorescence assay (FLIPR, BTC/AM) on Kir6.2/SUR2A

Kir6.1/SUR2B = biological target: T3, Kir6.1/SUR2B (Homo sapiens, UniProt O60706+Q15842); assay: thallium-flux fluorescence assay (FLIPR, BTC/AM); assay type: cell-based
T3 construct: gene KCNJ8; full-length human subunits co-expressed stably in HEK293 cells; GenScript vectors; four Kir6.1 plus four SUR2B
T3 sequence (Q15842 whole entry): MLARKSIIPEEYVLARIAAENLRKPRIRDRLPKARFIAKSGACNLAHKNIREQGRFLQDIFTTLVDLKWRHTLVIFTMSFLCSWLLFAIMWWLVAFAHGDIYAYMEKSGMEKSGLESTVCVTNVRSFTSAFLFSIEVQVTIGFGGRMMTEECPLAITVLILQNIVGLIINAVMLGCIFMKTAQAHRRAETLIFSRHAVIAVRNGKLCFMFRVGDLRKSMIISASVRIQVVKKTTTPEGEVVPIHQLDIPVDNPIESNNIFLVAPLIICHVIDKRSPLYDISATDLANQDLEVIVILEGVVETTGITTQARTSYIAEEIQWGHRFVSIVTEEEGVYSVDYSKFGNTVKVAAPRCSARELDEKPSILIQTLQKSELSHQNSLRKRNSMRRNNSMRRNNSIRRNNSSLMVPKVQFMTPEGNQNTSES
T3 sequence (O60706 1-1549 isoform O60706-2): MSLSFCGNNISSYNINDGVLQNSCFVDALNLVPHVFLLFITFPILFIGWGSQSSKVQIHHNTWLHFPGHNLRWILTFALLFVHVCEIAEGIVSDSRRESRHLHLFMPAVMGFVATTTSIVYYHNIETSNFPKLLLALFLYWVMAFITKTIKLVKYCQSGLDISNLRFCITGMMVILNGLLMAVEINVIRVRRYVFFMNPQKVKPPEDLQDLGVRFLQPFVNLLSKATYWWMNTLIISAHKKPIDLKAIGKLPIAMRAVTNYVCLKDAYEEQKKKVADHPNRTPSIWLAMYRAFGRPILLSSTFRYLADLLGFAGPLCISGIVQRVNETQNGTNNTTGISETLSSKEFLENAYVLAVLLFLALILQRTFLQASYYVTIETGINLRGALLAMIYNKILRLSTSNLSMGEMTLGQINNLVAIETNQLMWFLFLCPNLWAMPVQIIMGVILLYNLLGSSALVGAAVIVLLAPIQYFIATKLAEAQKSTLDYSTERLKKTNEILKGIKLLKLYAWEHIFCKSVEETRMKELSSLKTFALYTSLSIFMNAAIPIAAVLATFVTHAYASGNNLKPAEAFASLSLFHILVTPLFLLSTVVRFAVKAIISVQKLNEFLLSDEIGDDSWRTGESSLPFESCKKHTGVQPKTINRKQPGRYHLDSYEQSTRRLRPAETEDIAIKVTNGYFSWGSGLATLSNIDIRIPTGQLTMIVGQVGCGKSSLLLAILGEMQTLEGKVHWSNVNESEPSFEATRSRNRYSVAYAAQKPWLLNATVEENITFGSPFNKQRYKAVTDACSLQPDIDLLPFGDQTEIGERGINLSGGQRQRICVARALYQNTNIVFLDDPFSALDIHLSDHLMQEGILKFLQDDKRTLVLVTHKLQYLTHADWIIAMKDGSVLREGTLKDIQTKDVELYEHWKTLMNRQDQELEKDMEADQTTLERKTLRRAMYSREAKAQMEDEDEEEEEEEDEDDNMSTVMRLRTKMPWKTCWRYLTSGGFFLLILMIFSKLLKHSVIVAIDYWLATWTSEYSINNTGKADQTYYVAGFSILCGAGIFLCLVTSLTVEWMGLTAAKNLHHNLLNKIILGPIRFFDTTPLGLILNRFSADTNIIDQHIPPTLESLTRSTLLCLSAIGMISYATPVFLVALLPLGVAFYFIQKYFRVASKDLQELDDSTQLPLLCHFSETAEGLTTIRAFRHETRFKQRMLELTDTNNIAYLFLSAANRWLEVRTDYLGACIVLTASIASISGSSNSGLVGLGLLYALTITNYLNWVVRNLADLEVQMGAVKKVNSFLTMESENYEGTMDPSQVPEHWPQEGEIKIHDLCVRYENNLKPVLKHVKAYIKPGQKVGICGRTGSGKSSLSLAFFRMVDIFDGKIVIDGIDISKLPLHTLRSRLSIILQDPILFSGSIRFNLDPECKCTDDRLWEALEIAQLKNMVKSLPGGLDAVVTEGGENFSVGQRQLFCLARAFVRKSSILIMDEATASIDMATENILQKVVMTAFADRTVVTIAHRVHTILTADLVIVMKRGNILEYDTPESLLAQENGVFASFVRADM
Source text: thallium-flux fluorescence assay (FLIPR, BTC/AM) on Kir6.1/SUR2B

[1] = thallium-flux fluorescence assay (FLIPR, BTC/AM); assay type: cell-based, Homo sapiens; conditions: read-out: Kir6.1/SUR2B / EC50
Source text: as §1

[2] = thallium-flux fluorescence assay (FLIPR, BTC/AM); assay type: cell-based, Homo sapiens; conditions: read-out: Kir6.2/SUR1 / IC50

T1 sequence (Q14654 whole entry): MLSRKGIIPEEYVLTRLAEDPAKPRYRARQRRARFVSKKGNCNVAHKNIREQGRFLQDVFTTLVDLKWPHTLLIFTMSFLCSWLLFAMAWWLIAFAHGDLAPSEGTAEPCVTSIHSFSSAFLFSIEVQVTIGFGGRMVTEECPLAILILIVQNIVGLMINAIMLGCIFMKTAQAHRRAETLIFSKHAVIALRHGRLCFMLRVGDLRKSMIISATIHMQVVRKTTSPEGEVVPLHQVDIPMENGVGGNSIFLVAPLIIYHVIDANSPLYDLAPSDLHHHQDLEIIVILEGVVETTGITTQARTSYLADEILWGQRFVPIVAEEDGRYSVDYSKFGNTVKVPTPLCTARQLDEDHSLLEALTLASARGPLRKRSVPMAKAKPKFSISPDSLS
T1 sequence (Q09428 whole entry): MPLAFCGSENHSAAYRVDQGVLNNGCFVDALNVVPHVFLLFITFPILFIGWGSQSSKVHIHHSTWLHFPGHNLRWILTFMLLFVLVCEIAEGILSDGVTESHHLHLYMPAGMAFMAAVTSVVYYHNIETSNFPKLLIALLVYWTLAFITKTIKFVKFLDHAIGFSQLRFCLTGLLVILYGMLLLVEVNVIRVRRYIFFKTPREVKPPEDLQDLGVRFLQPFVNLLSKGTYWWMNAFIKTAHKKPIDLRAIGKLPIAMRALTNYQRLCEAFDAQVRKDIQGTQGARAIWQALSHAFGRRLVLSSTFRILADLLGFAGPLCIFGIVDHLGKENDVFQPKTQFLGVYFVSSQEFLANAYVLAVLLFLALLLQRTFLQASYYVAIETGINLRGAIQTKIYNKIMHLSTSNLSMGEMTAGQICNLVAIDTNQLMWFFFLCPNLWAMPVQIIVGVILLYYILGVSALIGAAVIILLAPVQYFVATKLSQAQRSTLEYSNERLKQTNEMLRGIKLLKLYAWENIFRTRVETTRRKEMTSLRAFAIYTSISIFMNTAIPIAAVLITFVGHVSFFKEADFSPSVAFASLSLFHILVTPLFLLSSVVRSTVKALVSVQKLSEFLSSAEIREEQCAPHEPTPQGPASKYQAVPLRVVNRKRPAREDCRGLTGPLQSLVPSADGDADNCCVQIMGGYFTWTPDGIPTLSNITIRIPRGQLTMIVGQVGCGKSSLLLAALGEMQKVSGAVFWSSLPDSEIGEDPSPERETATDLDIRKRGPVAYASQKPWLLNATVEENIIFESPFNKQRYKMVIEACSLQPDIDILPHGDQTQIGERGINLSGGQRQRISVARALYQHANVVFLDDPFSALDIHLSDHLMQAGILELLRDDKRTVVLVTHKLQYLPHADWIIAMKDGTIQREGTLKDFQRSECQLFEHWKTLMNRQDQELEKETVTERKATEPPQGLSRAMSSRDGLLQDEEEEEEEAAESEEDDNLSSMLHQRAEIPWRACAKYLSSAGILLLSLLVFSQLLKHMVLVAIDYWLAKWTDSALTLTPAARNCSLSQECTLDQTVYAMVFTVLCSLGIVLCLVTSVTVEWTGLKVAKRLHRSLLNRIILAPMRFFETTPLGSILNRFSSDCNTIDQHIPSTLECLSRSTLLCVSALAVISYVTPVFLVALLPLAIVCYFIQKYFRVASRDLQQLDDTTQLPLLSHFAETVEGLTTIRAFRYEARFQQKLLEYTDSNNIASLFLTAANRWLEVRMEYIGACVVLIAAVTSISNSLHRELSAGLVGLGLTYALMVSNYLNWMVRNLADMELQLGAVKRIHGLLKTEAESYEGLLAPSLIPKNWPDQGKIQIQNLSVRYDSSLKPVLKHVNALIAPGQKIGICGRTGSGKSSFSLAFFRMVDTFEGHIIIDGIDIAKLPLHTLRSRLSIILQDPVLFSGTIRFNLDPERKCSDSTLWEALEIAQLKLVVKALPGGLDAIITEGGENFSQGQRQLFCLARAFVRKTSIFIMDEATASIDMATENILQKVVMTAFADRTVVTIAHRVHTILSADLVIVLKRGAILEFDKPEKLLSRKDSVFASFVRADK

SMILES	EC50 (Kir6.1/SUR2B) [nM]	IC50 (Kir6.2/SUR2A) [nM]	IC50 (Kir6.1/SUR2B) [nM]	IC50 (Kir6.2/SUR1) [nM]	other results
O=C1CCCC2=C1[C@H](c1ccc(F)c(Br)c1)C1=C(CCS1(=O)=O)N2 [A-278637]	170 ± 89				EC50 (Kir6.2/SUR1): > 30000 nM; EC50 (Kir6.2/SUR2A): 1600 ± 890 nM
CC1(C)Oc2ccc(C#N)cc2[C@H](N(Cc2ncc[nH]2)c2ccc(Cl)cc2)[C@H]1O [BMS-191095]	> 30000				EC50 [1]: > 30000 nM
CC1=NS(=O)(=O)c2cc(Cl)ccc2N1 [Diazoxide]	9700 ± 5700				EC50 (Kir6.2/SUR2A): > 100000 nM
COc1ccc(Cl)cc1C(=O)NCCc1ccc(S(=O)(=O)NC(=O)NC2CCCCC2)cc1 [Glibenclamide]		9.9 ± 4.1	21 ± 14		
Cc1ccc(S(=O)(=O)NC(=O)NN2CC3CCCC3C2)cc1 (centres unmarked) [Gliclazide]		55000 ± 22000	24000 ± 11000	610 ± 450	
CCC1=C(C)CN(C(=O)NCCc2ccc(S(=O)(=O)NC(=O)N[C@H]3CC[C@H](C)CC3)cc2)C1=O [Glimepiride]		17 ± 9	33 ± 23	2.3 ± 1.2	
COc1ccc2c(c1)C(=O)N(CCc1ccc(S(=O)(=O)NC(=O)NC3CCCCC3)cc1)C(=O)C2(C)C [Gliquidone]		780 ± 580	4500 ± 3600	6.9 ± 5	
CC1(NC2=NS(=O)(=O)c3sc(Cl)cc3N2)CC1 [NN414]	> 30000				
CC(C)[C@H]1CC[C@H](C(=O)N[C@H](Cc2ccccc2)C(=O)O)CC1 [Nateglinide]		16000 ± 7300	14000 ± 6700	44 ± 13	
CCC(C)(C)NC(=NC#N)Nc1cccnc1 [P1075]	52 ± 24				EC50 (Kir6.2/SUR1): > 30000 nM; EC50 (Kir6.2/SUR2A): 510 ± 270 nM
C1CCC(/N=C(\NC23CC4CC(CC(C4)C2)C3)N2CCOCC2)CC1 [PNU-37883A]			290 ± 210	> 100000	IC50 [2]: > 100000 nM
CC(N/C(=N\C#N)Nc1ccncc1)C(C)(C)C (centres unmarked) [Pinacidil]					EC50 (Kir6.2/SUR1): > 30000 nM
CCOc1cc(CC(=O)N[C@@H](CC(C)C)c2ccccc2N2CCCCC2)ccc1C(=O)O [Repaglinide]		0.94 ± 0.46	1.1 ± 0.6	3.9 ± 1.4	
CN(CCOc1ccc(CC2SC(=O)NC2=O)cc1)c1ccccn1 (centres unmarked) [Rosiglitazone]			8500 ± 4600	> 100000	IC50 [2]: > 100000 nM
CCCCNC(=O)NS(=O)(=O)c1ccc(C)cc1 [Tolbutamide]		71000 ± 12000	41000 ± 11000	7500 ± 4100	
Cc1c(C)c2c(c(C)c1O)CCC(C)(COc1ccc(CC3SC(=O)NC3=O)cc1)O2 (centres unmarked) [Troglitazone]		30000 ± 16000	10000 ± 6500	14000 ± 3100	
CC(=O)N(O)[C@@H]1c2cc(C#N)ccc2OC(C)(C)[C@H]1O [Y-26763]	75 ± 42				EC50 (Kir6.2/SUR1): 4100 ± 2100 nM; EC50 (Kir6.2/SUR2A): 1300 ± 970 nM
CC(O)(C(=O)Nc1ccc(S(=O)(=O)c2ccccc2)cc1)C(F)(F)F (centres unmarked) [ZM226600]	150 ± 90				EC50 (Kir6.2/SUR1): > 30000 nM; EC50 (Kir6.2/SUR2A): 2800 ± 2200 nM
